From ChEMBL document CHEMBL5042492, “Noncovalent CDK12/13 dual inhibitors-based PROTACs degrade CDK12-Cyclin K complex and induce synthetic lethality with PARP inhibitor” (Eur J Med Chem, 2022)
Calls of active or inactive are those of the source. No cut-off for these calls is given here.

What was measured:
[1] = target: T1, Protein cereblon/Cyclin-K/Cyclin-dependent kinase 12 (Homo sapiens, UniProt O75909+Q9NYV4+Q96SW2); experiment: Protac activity at human CRBN/CDK12/CycK in human Bel-7402 cells assessed as degradation of CDK12 at 3 uM measured after 24 hrs by Western blotting assay; assay type: cell-based
Target sequence in this assay (O75909 whole entry, looked up): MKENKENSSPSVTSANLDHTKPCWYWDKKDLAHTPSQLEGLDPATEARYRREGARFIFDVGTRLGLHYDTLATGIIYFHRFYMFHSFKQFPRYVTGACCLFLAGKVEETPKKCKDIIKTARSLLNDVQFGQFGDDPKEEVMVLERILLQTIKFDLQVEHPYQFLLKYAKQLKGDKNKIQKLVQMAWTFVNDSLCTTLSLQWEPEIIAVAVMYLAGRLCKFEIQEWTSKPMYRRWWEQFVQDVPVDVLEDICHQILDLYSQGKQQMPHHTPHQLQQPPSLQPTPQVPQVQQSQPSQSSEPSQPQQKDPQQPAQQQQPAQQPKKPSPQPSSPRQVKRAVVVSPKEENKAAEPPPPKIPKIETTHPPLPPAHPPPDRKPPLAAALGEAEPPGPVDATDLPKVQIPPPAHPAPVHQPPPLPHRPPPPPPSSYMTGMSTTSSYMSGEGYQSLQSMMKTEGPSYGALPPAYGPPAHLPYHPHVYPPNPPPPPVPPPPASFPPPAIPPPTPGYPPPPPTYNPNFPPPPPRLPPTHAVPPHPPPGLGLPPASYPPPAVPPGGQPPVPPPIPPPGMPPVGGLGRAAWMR
Target sequence in this assay (Q96SW2 whole entry, looked up): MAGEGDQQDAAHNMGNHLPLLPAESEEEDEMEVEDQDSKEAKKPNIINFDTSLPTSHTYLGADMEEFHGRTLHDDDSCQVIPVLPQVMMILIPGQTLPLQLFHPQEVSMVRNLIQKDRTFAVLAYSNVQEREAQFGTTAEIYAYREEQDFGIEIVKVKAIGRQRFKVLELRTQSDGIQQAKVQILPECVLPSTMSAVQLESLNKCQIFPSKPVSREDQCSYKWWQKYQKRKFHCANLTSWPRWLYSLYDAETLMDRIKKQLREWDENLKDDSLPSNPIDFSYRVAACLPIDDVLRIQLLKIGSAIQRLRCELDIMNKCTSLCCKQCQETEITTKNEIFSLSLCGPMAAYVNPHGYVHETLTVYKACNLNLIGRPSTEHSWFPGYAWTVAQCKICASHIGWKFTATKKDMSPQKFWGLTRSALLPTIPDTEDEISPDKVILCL
Target sequence in this assay (Q9NYV4 whole entry, looked up): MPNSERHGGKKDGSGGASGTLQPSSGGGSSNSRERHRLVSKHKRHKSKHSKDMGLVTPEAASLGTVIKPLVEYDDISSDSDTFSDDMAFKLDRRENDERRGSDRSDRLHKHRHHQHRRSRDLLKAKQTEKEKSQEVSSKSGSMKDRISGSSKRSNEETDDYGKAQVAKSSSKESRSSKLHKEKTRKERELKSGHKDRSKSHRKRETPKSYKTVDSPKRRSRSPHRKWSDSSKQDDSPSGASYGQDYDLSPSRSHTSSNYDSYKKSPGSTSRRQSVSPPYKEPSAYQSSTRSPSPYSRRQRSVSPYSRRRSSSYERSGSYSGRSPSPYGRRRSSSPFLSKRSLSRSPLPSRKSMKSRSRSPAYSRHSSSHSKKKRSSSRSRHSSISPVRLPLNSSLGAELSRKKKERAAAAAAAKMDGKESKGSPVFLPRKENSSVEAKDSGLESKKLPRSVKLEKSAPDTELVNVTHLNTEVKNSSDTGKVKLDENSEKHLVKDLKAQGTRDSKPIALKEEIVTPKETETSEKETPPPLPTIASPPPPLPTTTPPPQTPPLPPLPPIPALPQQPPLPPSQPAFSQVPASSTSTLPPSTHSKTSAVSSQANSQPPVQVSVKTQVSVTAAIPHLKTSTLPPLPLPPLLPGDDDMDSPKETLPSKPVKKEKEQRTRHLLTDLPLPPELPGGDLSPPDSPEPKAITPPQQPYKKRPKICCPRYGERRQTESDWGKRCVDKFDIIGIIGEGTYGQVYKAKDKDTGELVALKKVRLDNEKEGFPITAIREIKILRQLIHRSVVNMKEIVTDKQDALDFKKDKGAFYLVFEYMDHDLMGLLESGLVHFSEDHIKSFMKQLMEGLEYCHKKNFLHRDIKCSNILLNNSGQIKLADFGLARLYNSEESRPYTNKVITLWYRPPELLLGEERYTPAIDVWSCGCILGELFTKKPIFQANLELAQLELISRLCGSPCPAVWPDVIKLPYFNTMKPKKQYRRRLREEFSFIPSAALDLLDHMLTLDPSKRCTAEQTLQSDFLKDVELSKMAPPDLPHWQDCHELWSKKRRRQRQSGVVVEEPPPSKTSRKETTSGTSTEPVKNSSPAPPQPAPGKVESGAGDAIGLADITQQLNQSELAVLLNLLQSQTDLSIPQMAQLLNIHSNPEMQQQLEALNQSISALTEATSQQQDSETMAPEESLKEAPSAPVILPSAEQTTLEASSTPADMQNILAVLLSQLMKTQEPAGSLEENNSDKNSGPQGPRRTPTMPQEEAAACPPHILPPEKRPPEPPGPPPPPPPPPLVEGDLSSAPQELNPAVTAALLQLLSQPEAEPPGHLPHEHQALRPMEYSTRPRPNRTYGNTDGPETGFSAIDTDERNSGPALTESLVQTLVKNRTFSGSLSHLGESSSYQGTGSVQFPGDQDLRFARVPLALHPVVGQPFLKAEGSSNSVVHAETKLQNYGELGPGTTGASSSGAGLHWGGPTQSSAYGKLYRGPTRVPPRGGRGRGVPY

[2] = target: T1, Protein cereblon/Cyclin-K/Cyclin-dependent kinase 12; experiment: Protac activity at human CRBN/CDK12/CycK in human MDA-MB-231 cells assessed as degradation of CycK measured after 24 hrs by Western blotting assay; assay type: cell-based
Target sequence in this assay (O75909 whole entry): as the sequence (O75909 whole entry, looked up) above
Target sequence in this assay (Q9NYV4 whole entry): as the sequence (Q9NYV4 whole entry, looked up) above
Target sequence in this assay (Q96SW2 whole entry): as the sequence (Q96SW2 whole entry, looked up) above

[3] = tested on: MDA-MB-231; experiment: Antiproliferative activity against human MDA-MB-231 cells at 3 uM for 10 days by SRB staining based clone formation assay relative to control; assay type: functional; conditions: MDA-MB-231, 240 h, time 10 day
[4] = target: T1, Protein cereblon/Cyclin-K/Cyclin-dependent kinase 12; experiment: Protac activity at human CRBN/CDK12/CycK in human MDA-MB-231 cells assessed as degradation of CDK12 measured after 24 hrs by Western blotting assay; assay type: cell-based
Target sequence in this assay (O75909 whole entry): as the sequence (O75909 whole entry, looked up) above
Target sequence in this assay (Q9NYV4 whole entry): as the sequence (Q9NYV4 whole entry, looked up) above
Target sequence in this assay (Q96SW2 whole entry): as the sequence (Q96SW2 whole entry, looked up) above

[5] = target: T1, Protein cereblon/Cyclin-K/Cyclin-dependent kinase 12; experiment: Protac activity at human CRBN/CDK12/CycK in human Bel-7402 cells assessed as downregulation of ATR measured after 6 hrs by RT-qPCR method; assay type: cell-based
Target sequence in this assay (O75909 whole entry, looked up): as the sequence (O75909 whole entry, looked up) above
Target sequence in this assay (Q96SW2 whole entry, looked up): as the sequence (Q96SW2 whole entry, looked up) above
Target sequence in this assay (Q9NYV4 whole entry, looked up): as the sequence (Q9NYV4 whole entry, looked up) above

[6] = tested on: MDA-MB-231; experiment: Synergistic antiproliferative activity against human MDA-MB-231 cells in presence of 3 uM of Olaparib at 1 uM measured after 10 days by Chou-Talalay method; assay type: functional; conditions: time 10 day
[7] = target: T1, Protein cereblon/Cyclin-K/Cyclin-dependent kinase 12; experiment: Protac activity at human CRBN/CDK12/CycK in human MDA-MB-231 cells assessed as downregulation of ATM measured after 6 hrs by RT-qPCR method; assay type: cell-based
Target sequence in this assay (O75909 whole entry, looked up): as the sequence (O75909 whole entry, looked up) above
Target sequence in this assay (Q96SW2 whole entry, looked up): as the sequence (Q96SW2 whole entry, looked up) above
Target sequence in this assay (Q9NYV4 whole entry, looked up): as the sequence (Q9NYV4 whole entry, looked up) above

[8] = tested on: MDA-MB-231; experiment: Synergistic antiproliferative activity against human MDA-MB-231 cells in presence of 1 uM of Olaparib at 1 uM for 10 days by Chou-Talalay method; assay type: functional; conditions: time 10 day
[9] = target: T1, Protein cereblon/Cyclin-K/Cyclin-dependent kinase 12; experiment: Protac activity at human CRBN/CDK12/CycK in human Bel-7402 cells assessed as downregulation of ATM measured after 6 hrs by RT-qPCR method; assay type: cell-based
Target sequence in this assay (O75909 whole entry, looked up): as the sequence (O75909 whole entry, looked up) above
Target sequence in this assay (Q96SW2 whole entry, looked up): as the sequence (Q96SW2 whole entry, looked up) above
Target sequence in this assay (Q9NYV4 whole entry, looked up): as the sequence (Q9NYV4 whole entry, looked up) above

[10] = target: T1, Protein cereblon/Cyclin-K/Cyclin-dependent kinase 12; experiment: Protac activity at human CRBN/CDK12/CycK in human MDA-MB-231 cells assessed as degradation of CycK a 1 to 3 uM for 24 hrs in presence of MG132 by Western blotting assay; assay type: cell-based; conditions: dose 1-3 µM
Target sequence in this assay (O75909 whole entry, looked up): as the sequence (O75909 whole entry, looked up) above
Target sequence in this assay (Q96SW2 whole entry, looked up): as the sequence (Q96SW2 whole entry, looked up) above
Target sequence in this assay (Q9NYV4 whole entry, looked up): as the sequence (Q9NYV4 whole entry, looked up) above

[11] = target: T1, Protein cereblon/Cyclin-K/Cyclin-dependent kinase 12; experiment: Protac activity at human CRBN/CDK12/CycK in human MDA-MB-231 cells assessed as downregulation of ATR measured after 6 hrs by RT-qPCR method; assay type: cell-based
Target sequence in this assay (O75909 whole entry, looked up): as the sequence (O75909 whole entry, looked up) above
Target sequence in this assay (Q96SW2 whole entry, looked up): as the sequence (Q96SW2 whole entry, looked up) above
Target sequence in this assay (Q9NYV4 whole entry, looked up): as the sequence (Q9NYV4 whole entry, looked up) above

[12] = tested on: MDA-MB-231; experiment: Synergistic antiproliferative activity against human MDA-MB-231 cells in presence of 1 uM of Olaparib at 1 uM for 10 days by SRB staining based clone formation assay relative to control; assay type: functional; conditions: MDA-MB-231, 240 h, time 10 day
[13] = target: T1, Protein cereblon/Cyclin-K/Cyclin-dependent kinase 12; experiment: Protac activity at human CRBN/CDK12/CycK in human MDA-MB-231 cells assessed as degradation of Cyclin T1 up to 30 uM measured after 24 hrs by Western blotting assay; assay type: cell-based; conditions: dose microM <=30, time 24.0 hrs
[14] = target: T1, Protein cereblon/Cyclin-K/Cyclin-dependent kinase 12; experiment: Protac activity at human CRBN/CDK12/CycK in human MDA-MB-231 cells assessed as degradation of GSPT1 up to 30 uM measured after 24 hrs by Western blotting assay; assay type: cell-based; conditions: dose microM <=30, time 24.0 hrs
[15] = target: T1, Protein cereblon/Cyclin-K/Cyclin-dependent kinase 12; experiment: Protac activity at human CRBN/CDK12/CycK in human Bel-7402 cells assessed as downregulation of Mcl-1 level upto 30 uM measured after 24 hrs by Western blotting assay; assay type: cell-based; conditions: dose microM <=30, time 24.0 hrs
[16] = target: T1, Protein cereblon/Cyclin-K/Cyclin-dependent kinase 12; experiment: Protac activity at human CRBN/CDK12/CycK in human Bel-7402 cells assessed as degradation of CDK12 measured after 24 hrs by Western blotting assay; assay type: cell-based
Target sequence in this assay (O75909 whole entry): as the sequence (O75909 whole entry, looked up) above
Target sequence in this assay (Q9NYV4 whole entry): as the sequence (Q9NYV4 whole entry, looked up) above
Target sequence in this assay (Q96SW2 whole entry): as the sequence (Q96SW2 whole entry, looked up) above

[17] = target: T1, Protein cereblon/Cyclin-K/Cyclin-dependent kinase 12; experiment: Protac activity at human CRBN/CDK12/CycK in human MDA-MB-231 cells assessed as RNAP2 CTD Ser2 phosphorylation level at 0.1 to 30 uM measured after 24 hrs by Western blotting assay; assay type: cell-based; conditions: dose 0.1-30 µM
[18] = target: T1, Protein cereblon/Cyclin-K/Cyclin-dependent kinase 12; experiment: Protac activity at human CRBN/CDK12/CycK in human MDA-MB-231 cells assessed as degradation of CDK12 at 3 uM measured after 24 hrs by Western blotting assay; assay type: cell-based
[19] = target: T1, Protein cereblon/Cyclin-K/Cyclin-dependent kinase 12; experiment: Protac activity at human CRBN/CDK12/CycK in human Bel-7402 cells assessed as degradation of CDK7 up to 30 uM measured after 24 hrs by Western blotting assay; assay type: cell-based; conditions: dose microM <=30, time 24.0 hrs
[20] = target: T1, Protein cereblon/Cyclin-K/Cyclin-dependent kinase 12; experiment: Protac activity at human CRBN/CDK12/CycK in human MDA-MB-231 cells assessed as degradation of CDK7 up to 30 uM measured after 24 hrs by Western blotting assay; assay type: cell-based; conditions: dose microM <=30, time 24.0 hrs
[21] = target: T1, Protein cereblon/Cyclin-K/Cyclin-dependent kinase 12; experiment: Protac activity at human CRBN/CDK12/CycK in human Bel-7402 cells assessed as degradation of Cyclin T1 upto 30 uM measured after 24 hrs by Western blotting assay; assay type: cell-based; conditions: dose microM <=30, time 24.0 hrs
[22] = target: T1, Protein cereblon/Cyclin-K/Cyclin-dependent kinase 12; experiment: Protac activity at human CRBN/CDK12/CycK in human Bel-7402 cells assessed as degradation of CDK12 at 1 to 3 uM for 24 hrs in presence of MG132 by Western blotting assay; assay type: cell-based; conditions: dose 1-3 µM
[23] = tested on: MDA-MB-231; experiment: Antiproliferative activity against human MDA-MB-231 cells at 1 uM for 10 days by SRB staining based clone formation assay relative to control; assay type: functional; conditions: MDA-MB-231, 240 h, time 10 day
[24] = tested on: MDA-MB-231; experiment: Synergistic antiproliferative activity against human MDA-MB-231 cells in presence of 3 uM of Olaparib at 1 uM measured after 10 days by SRB staining based clone formation assay relative to control; assay type: functional; conditions: MDA-MB-231, 240 h, time 10 day
[25] = target: T1, Protein cereblon/Cyclin-K/Cyclin-dependent kinase 12; experiment: Protac activity at human CRBN/CDK12/CycK in human Bel-7402 cells assessed as degradation of CycK measured after 24 hrs by Western blotting assay; assay type: cell-based
Target sequence in this assay (O75909 whole entry): as the sequence (O75909 whole entry, looked up) above
Target sequence in this assay (Q9NYV4 whole entry): as the sequence (Q9NYV4 whole entry, looked up) above
Target sequence in this assay (Q96SW2 whole entry): as the sequence (Q96SW2 whole entry, looked up) above

CC(C)n1cnc2c(NCc3nc4cc(F)c(NCCCCCCCCNC(=O)COc5cccc6c5C(=O)N(C5CCC(=O)NC5=O)C6=O)cc4[nH]3)nc(N3CCOCC3)nc21 (stereo not given)
Activity [1]: Active
DC50 [2]: 0.412 µM
inhibition at 3 µM [3]: 6.47%
DC50 [4]: 0.416 µM
Activity [5]: Active
CI [6]: 0.75
Activity [7]: Active
CI [8]: 0.65
Activity [9]: Active
Activity [10]: inactive
Activity [11]: Active
inhibition at 1 µM [12]: 67.8%
Activity [13]: inactive
Activity [14]: inactive
Activity [15]: inactive
DC50 [16]: 0.416 µM
Activity [17]: Active
Activity [18]: Active
Activity [19]: inactive
Activity [20]: inactive
Activity [21]: inactive
Activity [22]: inactive
inhibition at 1 µM [23]: 1.05%
inhibition at 1 µM [24]: 99.6%
DC50 [25]: 0.412 µM
